Data taken from PMC7037732, “Synthesis of Combretastatin A-4 and 3′-Aminocombretastatin A-4 derivatives with Aminoacid Containing Pendants and Study of their Interaction with Tubulin and as Downregulators of the VEGF, hTERT and c-Myc Gene Expression” (Molecules, 2020).

Key:
[1] = system: A-549 (human pulmonary adenocarcinoma); assay: Inhibition of cell proliferation (MTT), A-549; format: cell-based; details: Homo sapiens, A549, 48 h, Table 2; 48 h of treatment (footnote); average ±SD of three experiments
From the text: (§1) The ability of the synthetic compounds to inhibit cell proliferation was established by means of their IC50 values towards the tumor cell lines HT-29 (human colon adenocarcinoma), MCF-7 (breast adenocarcinoma) and A-549 (human pulmonary adenocarcinoma), as well as towards the nontumor cell line HEK-293 (human embryonic kidney cells). Results for compounds derived from CA-4 are presented in Table 1, along with the calculated selectivity indexes SIA (for HT-29 cell line), SIB (for MCF-7 cell line) and SIc (for A-549 cell line), obtained by dividing the IC50 values of the nontumor cell line (HEK-293) by those of the corresponding tumor cell line. The higher the SI index, the higher the therapeutic safety margin.
Cell culture media were purchased from Gibco (Grand Island, NY, USA). Fetal bovine serum (FBS) was a product of Harlan-Seralab (Belton, U.K.). Supplements and other chemicals not listed in this section were obtained from Sigma Chemical Co. (St. Louis, MO, USA). Plastics for cell culture were supplied by Thermo Fischer Scientific Inc., Madrid, Spain. All tested compounds were dissolved in DMSO at a concentration of 10 μg/mL and stored at −20 °C until use. HT-29, MCF-7, A-549 and HEK-293 cell lines were maintained in a Dulbecco’s modified Eagle’s medium (DMEM) containing glucose (1 g/L), glutamine (2 mM), penicillin (50 IU/mL), streptomycin (50 μg/mL) and amphotericin B (1.25 μg/mL), supplemented with 10% FBS. Cells from human non-small lung carcinoma (clone A549; ATCC n°: CCL2, MD, USA) were routinely grown at 37 °C in a humidified atmosphere of 5% CO2. Cells were maintained in a standard medium composed of RPMI 1640 (Lonza, Group Ltd., Basel, Switzerland), supplemented with 10% fetal bovine serum (FBS), 2 mM L-glutamine and 1% penicillin and streptomycin (Invitrogen). Cells were free from mycoplasma as determined by MycoAlert tests (Lonza, Group Ltd., Basel, Switzerland). […]

[2] = system: purified tubulin; assay: Critical concentration (CrC) for the assembly of purified tubulin in GAB; format: biochemical; details: compound 27.5 μM, tubulin 25 μM, glycerol (GAB) and GTP assembly buffer; control 7.9 ± 1.2
Description: The effect on the self-assembly of tubulin was determined by measuring the critical concentration (CrC).

[3] = system: VEGF gene; assay: VEGF gene expression by RT-qPCR in HT-29 cells; format: cell-based, human; details: HT-29, 48 h; for mrna remaining at 0.0015 µM: 1.5 nM; for mrna remaining at 0.015 µM: 15 nM
Description: (§2) The effect on the expression of VEGF, hTERT and c-Myc genes has been studied for CA-4 and its derivatives that show selectivity indexes higher than 0.9 on the HT-29 cell line. The studied derivatives, together with the concentrations to which they have been tested, are CA-4 (15 μM); 4.1 (Gly, 5 μM); 4.5 (L-Pro, 25 μM); 4.9 (L-Met, 25 μM); 6.2 (D-Leu, 25 μM); 6.3 (D-Phe, 25 μM); 6.4 (D-Pro, 25 μM) and 6.5 (D-Ser, 10 μM). The expression of the genes was determined by RT-qPCR methodology, as described in the Materials and Methods section.
(§3) As regards AmCA-4 derivatives, the effect on the expression of the VEGF, hTERT and c-Myc genes has been studied on those that show IC50 in the low nanomolar range on the HT-29 cell line and/or on compounds whose selectivity indexes with respect to this cell line are higher than 1. The studied compounds, together with the concentrations to which they have been tested, are: CA-4 (15 μM), AmCA-4 (15 nM), 7.1 (7 nM), 7.2 (1.5 nM), 7.3 (4 nM), 7.4 (15 nM), 7.5 (2 nM), 7.7 (7 nM), 7.8 (15 nM), 7.9 (30 nM), 8.1 (7 nM), 8.2 (3 nM), 8.3 (10 nM), 8.4 (1.5 nM), 8.5 (4 nM), 8.7 (7 nM), 8.8 (3 nM) and 8.9 (4 nM).
(§4) HT-29 cells at 70–80% confluence were collected, and 1.5 × 10^5 cells were placed in a six-well plate in 1.5 mL of the medium. After 24 h, cells were incubated with the corresponding compounds for 48 h. Cells were collected, and the total cellular RNA from the HT-29 cells was isolated using an Ambion RNA Extraction Kit, according to the manufacturer’s instructions. The cDNA was synthesized by MMLV-RT with […] of extracted RNA and oligo(dT)15, according to the manufacturer’s instructions. Genes were amplified by a thermal cycler and StepOnePlus™ TaqMan® probes. TaqMan® Gene Expression Master Mix Fast, containing the appropriate buffer for the amplification conditions, dNTPs, thermostable DNA polymerase enzyme and a passive reference probe, was used. To amplify each of the genes, the predesigned primers sold by Life Technologies TaqMan® Gene Expression Assays Hs99999903-m1 (β-actin), Hs00900055-m1 (VEGF), Hs00972646-m1 (hTERT) and Hs00153408-m1 (c-Myc) were used.

[4] = system: hTERT gene; assay: hTERT gene expression by RT-qPCR in HT-29 cells; format: cell-based, human; details: Homo sapiens, HT-29, 48 h, control 100; for mrna remaining at 0.0015 µM: 1.5 nM; for mrna remaining at 0.015 µM: 15 nM
Description: as §2, §3, §4

[5] = system: c-Myc gene; assay: c-Myc gene expression by RT-qPCR in HT-29 cells; format: cell-based, human; details: HT-29, 48 h; for mrna remaining at 0.0015 µM: 1.5 nM; for mrna remaining at 0.015 µM: 15 nM
Description: as §2, §3, §4

[6] = system: A-549 cells; assay: Cell cycle distribution by flow cytometry; format: cell-based, human; details: A-549, 24 h, 0.5 µM
Description: The effects of some CA-4 derivatives on the cell cycle were evaluated in A-549 cells.
The effects of some AmCA-4 derivatives on the cell cycle were also evaluated in A-549 cells.
The supernatant and trypsinated cells were harvested and then centrifuged (1200 rpm, 5 min, 4 °C). The cell pellet was resuspended in 1 mL of cold 70% ethanol for 30 min at −20 °C. Cells were centrifuged (2000 rpm, 5 min, 4 °C) to remove ethanol, and then the cell pellet was resuspended in the staining mix containing 50 µg/mL propidium iodide (Molecular Probes, France) and 100 µg/mL RNAse A (Sigma, France) in PBS for 20 min at room temperature in darkness. Samples were analyzed on a Becton Dickinson FACScan flow cytometer using the CellQuest software, which was also used to determine the percentage of cells in the G2/M phases of the cell cycle. PI was excited at 488 nm, and fluorescence analyzed at 620 nm on channel Fl-2.

[7] = system: HEK-293 (human embryonic kidney cells); assay: Inhibition of cell proliferation (MTT), nontumor HEK-293; format: cell-based; details: Table 2, 48 h of treatment (footnote), average ±SD of three experiments
From the text: as §1
(§5) Cell culture media were purchased from Gibco (Grand Island, NY, USA). Fetal bovine serum (FBS) was a product of Harlan-Seralab (Belton, U.K.). Supplements and other chemicals not listed in this section were obtained from Sigma Chemical Co. (St. Louis, MO, USA). Plastics for cell culture were supplied by Thermo Fischer Scientific Inc., Madrid, Spain. All tested compounds were dissolved in DMSO at a concentration of 10 μg/mL and stored at −20 °C until use. HT-29, MCF-7, A-549 and HEK-293 cell lines were maintained in a Dulbecco’s modified Eagle’s medium (DMEM) containing glucose (1 g/L), glutamine (2 mM), penicillin (50 IU/mL), streptomycin (50 μg/mL) and amphotericin B (1.25 μg/mL), supplemented with 10% FBS. Cells from human non-small lung carcinoma (clone A549; ATCC n°: CCL2, MD, USA) were routinely grown at 37 °C in a humidified atmosphere of 5% CO2. Cells were maintained in a standard medium composed of RPMI 1640 (Lonza, Group Ltd., Basel, Switzerland), supplemented with 10% fetal bovine serum (FBS), 2 mM L-glutamine and 1% penicillin and streptomycin (Invitrogen). Cells were free from mycoplasma as determined by MycoAlert tests (Lonza, Group Ltd., Basel, Switzerland).
(§6) A total of 5 × 10^3 HT-29, MCF-7 or HEK-293 cells in a total volume of 100 μL of their respective growth media were incubated with serial dilutions of the tested compounds. The 3-(4,5-dimethylthiazol-2-yl)-2,5-diphenyltetrazolium bromide (MTT; Sigma Chemical Co.) dye reduction assay in a 96-well microplate was used, as previously described. […] The resulting formazan was dissolved in 150 μL of 0.04 N HCl/2-propanol and read at 550 nm. All determinations were carried out in triplicate.

[8] = system: MCF-7 (breast adenocarcinoma); assay: Inhibition of cell proliferation (MTT), MCF-7; format: cell-based, human; details: Table 2, 48 h of treatment (footnote), average ±SD of three experiments
From the text: as §1, §5, §6

[9] = system: HT-29 (human colon adenocarcinoma); assay: Inhibition of cell proliferation (MTT), HT-29; format: cell-based; details: Homo sapiens, HT-29, 48 h, Table 2; 48 h of treatment (footnote); average ±SD of three experiments
From the text: as §1, §5, §6

[10] = system: tubulin; assay: In vitro tubulin polymerization by turbidimetry (It50); format: biochemical; details: turbidimetry at 350 nm, 37 °C; for It50 (time required to reach 50% of the polymerization): control 16.6 ± 1.0
Description: Figure 3 also includes polymerization curves in the presence of CA-4, AmCA-4 and paclitaxel. This test was also performed using paclitaxel, a microtubule stabilizing agent, as a control for the complete formation of microtubules (see Figure 3).

[11] = discussion, concentration per compound
[12] = Homo sapiens, 3 nM, control 100
[13] = Homo sapiens, 4 nM, control 100

Row | Compound | IC50 [1] [nM] | CrC (critical concentration) [2] [µM] | G0/G1 [6] [%] | G2/M [6] [%] | S [6] [%] | IC50 ([7]; Homo sapiens, HEK293, 48 h) [nM] | IC50 ([8]; Homo sapiens, MCF7, 48 h) [nM] | IC50 [9] [nM] | other results
1 | COc1ccc(/C=C\c2cc(OC)c(OC)c(OC)c2)cc1NC(=O)[C@H](C)NC(=O)OCC1c2ccccc2-c2ccccc21 [Compound 7.2] | 242 ± 13 | 9.4 ± 0.3 | 28 ± 1 | 53 ± 2 | 19 ± 2 |  |  |  | downregulation of VEGF gene expression [3, 11]: more than 60%; mrna remaining at 0.0015 µM ([3]; Homo sapiens, control 100): 25%; mrna remaining at 0.0015 µM [4]: 79%; downregulation of c-Myc gene expression [5, 11]: more than 60%; mrna remaining at 0.0015 µM ([5]; Homo sapiens, control 100): 22%
2 | COc1ccc(/C=C\c2cc(OC)c(OC)c(OC)c2)cc1NC(=O)[C@@H](N)Cc1ccc(O)cc1 [Compound 8.8] | 206 ± 20 | 7.7 ± 0.8 | 30 ± 2 | 52 ± 3 | 18 ± 1 | < 5 | < 5 |  | IC50 [7]: 2.7 ± 1.4 nM; mrna remaining at 0.003 µM [3, 12]: 72%; IC50 [8]: 4.9 ± 0.2 nM; mrna remaining at 0.003 µM ([4]; 3 nM): 46%; mrna remaining at 0.003 µM [5, 12]: 42%
3 | COc1ccc(/C=C\c2cc(OC)c(OC)c(OC)c2)cc1NC(=O)[C@@H](NC(=O)OCC1c2ccccc2-c2ccccc21)C(C)C [Compound 7.3] | 870 ± 60 | 6.9 ± 0.3 |  |  |  | 60 ± 20 | 100 ± 50 | 130 ± 40 | mrna remaining at 0.004 µM [3, 13]: 23%; mrna remaining at 0.004 µM ([4]; 4 nM): > 100%; mrna remaining at 0.004 µM [5, 13]: 63%
4 | COc1ccc(/C=C\c2cc(OC)c(OC)c(OC)c2)cc1NC(=O)[C@H](CC(C)C)NC(=O)OCC1c2ccccc2-c2ccccc21 [Compound 7.4] | 490 ± 13 | 9.9 ± 0.8 |  |  |  | 14 ± 3 | 9 ± 2 | 23 ± 10 | mrna remaining at 0.015 µM ([3]; Homo sapiens, control 100): 58%; mrna remaining at 0.015 µM [4]: 96%; mrna remaining at 0.015 µM ([5]; Homo sapiens, control 100): 94%
5 | COc1ccc(/C=C\c2cc(OC)c(OC)c(OC)c2)cc1NC(=O)[C@H]1CCCN1C(=O)OCC1c2ccccc2-c2ccccc21 [Compound 9.4] | 12800 ± 800 | 11.4 ± 0.2 |  |  |  | 3100 ± 1100 | 5300 ± 1100 | 5300 ± 300 | It50 (time required to reach 50% of the polymerization) [10]: 16.5 ± 0.3 min
6 | COc1ccc(/C=C\c2cc(OC)c(OC)c(OC)c2)cc1NC(=O)[C@H](Cc1ccc(O)cc1)NC(=O)OCC1c2ccccc2-c2ccccc21 [Compound 7.8] | 8900 ± 1200 | 10.1 ± 1.1 |  |  |  | 16 ± 2 | 12 ± 2 | 18 ± 5 | mrna remaining at 0.015 µM ([3]; Homo sapiens, control 100): 51%; mrna remaining at 0.015 µM [4]: 76%; mrna remaining at 0.015 µM ([5]; Homo sapiens, control 100): > 100%
7 | COc1ccc(/C=C\c2cc(OC)c(OC)c(OC)c2)cc1NC(=O)[C@@H](N)CC(C)C [Compound 8.4] | 167 ± 23 | 8.3 ± 0.3 | 35 ± 1 | 48 ± 1 | 17 ± 2 |  |  |  | mrna remaining at 0.0015 µM ([3]; Homo sapiens, control 100): 67%; mrna remaining at 0.0015 µM [4]: 73%; mrna remaining at 0.0015 µM ([5]; Homo sapiens, control 100): 48%
8 | CC(=O)O[C@H]1C(=O)[C@@]2(C)[C@H]([C@H](OC(=O)c3ccccc3)[C@]3(O)C[C@H](OC(=O)[C@H](O)[C@@H](NC(=O)c4ccccc4)c4ccccc4)C(C)=C1C3(C)C)[C@]1(OC(C)=O)CO[C@@H]1C[C@@H]2O [Paclitaxel, paclitaxel, reference compound] |  |  |  |  |  |  |  |  | time to reach the plateau phase of polymerization [10]: 30 min; It50 (time required to reach 50% of the polymerization) [10]: 3.2 ± 0.4 min; Effect on in vitro tubulin polymerization ([10]; result in words): promotes tubulin polymerization
